Laboratory results published in ChEMBL document CHEMBL3352700 (Bioorg Med Chem Lett, 2015).

Assays:
[1] = Effective permeability by PAMPA method; assay type: ADME; details: read-out: Peff
[2] = Cmax in IGS rat at 3 mg/kg, po administered as single dose; assay type: ADME, organism-based; parameters: dose 3 mg/kg, route oral; details: in vivo
Rattus norvegicus [3] = assay: AUC (infinity) in IGS rat at 3 mg/kg, po administered as single dose; assay type: ADME, organism-based, Plasma; parameters: time infinity, dose 3 mg/kg, route oral; details: in vivo
[4] = Oral bioavailability in IGS rat at 3 mg/kg administered as single dose; assay type: ADME, organism-based; details: in vivo
Rattus norvegicus [5] = assay: Volume of distribution at steady state in IGS rat at 3 mg/kg, po administered as single dose; assay type: ADME, organism-based; parameters: dose 3 mg/kg, route oral; details: in vivo
[6] = Cmax in Beagle Marshall dog at 1 mg/kg, po administered as single dose; assay type: ADME, organism-based, Canis lupus familiaris; parameters: dose 1 mg/kg, route oral; details: in vivo
[7] = AUC (infinity) in Beagle Marshall dog at 1 mg/kg, po administered as single dose; assay type: ADME, organism-based, Canis lupus familiaris; parameters: time infinity, dose 1 mg/kg, route oral; details: plasma
[8] = Oral bioavailability in Beagle Marshall dog at 1 mg/kg administered as single dose; assay type: ADME, organism-based, Canis lupus familiaris; details: in vivo
[9] = Volume of distribution at steady state in Beagle Marshall dog at 1 mg/kg administered as single dose; assay type: ADME, organism-based, Canis lupus familiaris; parameters: dose 1 mg/kg; details: in vivo, read-out: Vdss
[10] = AUC (infinity) in IGS rat at 1 mg/kg, iv administered as single dose; assay type: ADME, organism-based; parameters: time infinity, dose 1 mg/kg, route intravenous; details: plasma
[11] = Cmax in rat at 300 mg/kg, po; assay type: ADME, organism-based; parameters: dose 300 mg/kg, route oral; details: in vivo

Question: With `CN(C)CCn1c(CC(C)(C)C)nc2cc(S(=O)(=O)C3CN(C(N)=O)C3)ccc21` as the molecule, how does the Papp [1] read?
Answer: 0.6 ×10⁻⁶ cm/s

Question: For `CN(C)CCn1c(CC(C)(C)C)nc2cc(S(=O)(=O)C3CN(C)C3)ccc21`, which Papp [1] is on record?
Answer: 7.8 ×10⁻⁶ cm/s

Question: For `CCN1CC(S(=O)(=O)c2ccc3c(c2)nc(CC(C)(C)C)n3CCN(C)C)C1`, which Papp [1] is on record?
Answer: 10 ×10⁻⁶ cm/s

Question: Which Papp [1] does the source give for `CN(C)CCn1c(CC(C)(C)C)nc2cc(S(=O)(=O)C3CN(CC(F)(F)F)C3)ccc21` here?
Answer: 18 ×10⁻⁶ cm/s

Question: Which results are given for `CN(C)CCn1c(CC(C)(C)C)nc2cc(S(=O)(=O)C3CN(CCO)C3)ccc21`?
Answer: Papp [1]: 1.5 ×10⁻⁶ cm/s; Cmax [2]: 38 ng/mL; AUC (Rattus norvegicus [3]): 300 ng·h/mL; bioavailability [4]: 20%; Vdss (Rattus norvegicus [5]): 5.696 L/kg; Cmax [6]: 102 ng/mL; AUC(0-inf) [7]: 1000 ng·h/mL; bioavailability [8]: 72%; Vd [9]: 5.69 L/kg; AUC(0-inf) [10]: 391 ng·h/mL; Cmax [11]: 1800 ng/mL

Question: Which Papp [1] does the source give for `CN(C)CCn1c(CC(C)(C)C)nc2cc(S(=O)(=O)C3CN(S(C)(=O)=O)C3)ccc21` here?
Answer: 5.9 ×10⁻⁶ cm/s
